{"source": "patent US8513203B2", "about": "“Composition and method thereof” (Indus Biotech Private Limited, priority 2011, dated 2013)", "tested_on": "FCA induced arthritis", "test": "FCA induced arthritis, non-injected paw volume", "type": "in vivo, rat", "settings": "10 mg/kg", "method": "Anti-arthritis activity was studied by injecting Freund's complete adjuvant (FCA) in rat paw and measuring the edema formation and percentage inhibition of paw volume in the non-injected paw.\nMale wistar rats weighing between 190-250 g were injected with 0.1 ml of FCA into the sub planter region of left hind paw. 0.1 ml of FCA solution consist of 6 mg of Complete Fraction of Mycobacterium Butyrium (Difco) being Suspended in heavy Paraffin Oil (Merck). Local oedema was produced after few hrs. Treatment with the test compound was carried out from day 13 to day 21 after FCA injection. Volume of the non-injected hind paw was recorded using plethysmometer (UGO Basile 7140).\nThe percentage inhibition of inflammation in the non-injected paw was measured as difference in the mean paw volume of the FCA control group to that of the treated animals."}
{"smiles": "Cc1ccc(-c2cc(C(F)(F)F)nn2-c2ccc(S(N)(=O)=O)cc2)cc1", "note": "[Celecoxib]", "values": [{"measurement": "Percentage reduction of FCA induced arthritis", "setting": "Day 18", "result": "58.97 ± 35.93", "unit": "%"}, {"measurement": "Percentage reduction of FCA induced arthritis", "setting": "Day 21", "result": "81.24 ± 22.35", "unit": "%"}]}
